# Where two headings read alike, the source gives them in different places.
# Assays:
# [1] = system: subjects with PAD; details: even at the 160 mg dose escalation
# Protocol: (§1) The following safety parameters were assessed: medical and medication history, concomitant medication usage, physical examination, vital signs, 12-lead ECG, clinical chemistries, CBC, urinalysis, and adverse events. Urine pregnancy testing was completed for women of child-bearing potential who have not been surgically sterilized. Assessment of acute adverse events (i.e., drop in blood pressure, dizziness) was performed after administration of 1st dose for each dose level of sodium nitrite. Dose-limiting toxicity (DLT) was defined as Grade 3 and clinically significant hematological events, particularly MetHb.
# [2] = system: subjects with PAD; details: oral BID for 10 weeks vs placebo
# Protocol: Quality of life was measured by two questionnaires: WIQ and RAND 36. The two questionnaires were administered in the same sequence: WIQ first, followed by the RAND 36. The WIQ was a disease-specific instrument that measures community-based walking. The questionnaire consisted of four subscales (pain severity, distance, speed, and stairs). The WIQ was verbally administered to the subject by the Investigator, or designee. The RAND 36 was an instrument that measured general health issues. Study staff directed subjects to complete the RAND 36 on their own. […] No family members or other individuals were allowed to answer questions or complete the questionnaire for the subject. All questionnaires were completed directly on the written source document pages. The study coordinator reviewed all questionnaires to ensure that there was only one response to each question, each question has been answered and any necessary corrections have been initialed and dated by the Investigator (or designee) or subject, accordingly.
# [3] = system: subjects with PAD
# Protocol: A resting 12-lead ECG printout with the subject in supine position was obtained at the time points listed in Table 1-Schedule of Assessments. All ECGs were assessed by the PI or qualified designee for clinical significance of any abnormalities or changes and documented on the ECG source document. Any clinically significant abnormalities that occured after the first dose of sodium nitrite was recorded as AEs on the eCRF. The 12-lead ECG was obtained immediately following vitals, with the exception of the Visit 1 Randomization day ECG which was collected prior to dosing.
# [4] = system: subjects with PAD; remark: listed apart in the source
# Protocol: The primary objective of this early stage clinical study was to evaluate the safety and tolerability of multiple doses of twice daily 40 mg and 80 mg sodium nitrite compared with placebo over a 10 week treatment period. […] Finally, the relationship between doses, plasma concentration of sodium nitrite, and pharmacodynamic effects were characterized and evaluated. In this study, multiple assessments of biological activity and ambulatory function were made during standardized tests of arterial reactivity and claudication-limited exercise. The pharmacodynamic assessments included: brachial artery flow-mediated vasodilation (FMD), six-minute walk test, selected biomarkers of interest, quality of life questionnaires (WIQ & RAND 36).
# All doses were given as a twice-daily oral dose for 10 weeks. On the day following the 10 week dosing period and completion of efficacy assessments, subjects in each treatment arm entered a 6 day dose-escalation period (dose-doubling). Subjects in the 40 mg sodium nitrite BID group were dose-escalated to 80 mg sodium nitrite BID for 6 days, and subjects in the 80 mg sodium nitrite BID were dose-escalated to 160 mg sodium nitrite BID for 6-days. Placebo subjects doubled the number of placebo capsules taken BID. All study medication was stopped at the end of the 6-day dose-escalation period.
# as §1
# As defined by the International Conference on Harmonisation (ICH), an AE was any untoward medical occurrence in a patient or clinical investigation subject administered an investigational product, whether or not the event was considered related to the investigational product. An AE was therefore any unfavorable and unintended sign (including an abnormal laboratory finding), symptom, or disease (new or exacerbated) temporally associated with the use of the investigational product and was collected starting when IP was administered.
# [5] = 40-mg, Visit 1 (prior to dosing)
# [6] = 80-mg, Visit 1 (prior to dosing)
# [7] = 80-mg, Visit 8 (after 6-day dose escalation)
# [8] = 160-mg, Visit 8 (after 6-day dose escalation)
# [9] = Six-Day Dose-Escalation Period Only, 40 mg group (escalated to 80 mg BID)
# [10] = Six-Day Dose-Escalation Period Only, 80 mg group (escalated to 160 mg BID)
smiles,measurement,setting,value
O=NO [sodium nitrite],Methemoglobin levels,[1],of no concern
same,WIQ assessment in walking distance,[2],no change
same,WIQ stair climbing,[2],trend toward improvement
same,WIQ walking speed,[2],trend toward improvement
same,RAND 36 quality of life assessment,[2]; sentence names the 40 mg group,trend toward improvement
same,ECG Heart Rate,[3]; [5],71.4 +/− 12.7 beats/minute
same,QTcB interval,[3]; [5],415.9 ± 49.0 ms
same,QTcF interval,[3]; [5],404.8 ± 44.9 ms
same,ECG Heart Rate,"[3]; 40-mg, Visit 5 (Day 28)",72.2 +/− 14.8 beats/minute
same,QTcB interval,"[3]; 40-mg, Visit 5 (Day 28)",430.1 ± 34.8 ms
same,QTcF interval,"[3]; 40-mg, Visit 5 (Day 28)",417.7 ± 24.0 ms
same,ECG Heart Rate,[3]; [6],62.7 +/− 10.7 beats/minute
same,QTcB interval,[3]; [6],422.3 ± 34.0 ms
same,QTcF interval,[3]; [6],419.9 ± 30.5 ms
same,ECG Heart Rate,"[3]; 80-mg, Visit 5 (Day 28)",65.5 +/− 11.9 beats/minute
same,QTcB interval,"[3]; 80-mg, Visit 5 (Day 28)",411.6 ± 49.7 ms
same,QTcF interval,"[3]; 80-mg, Visit 5 (Day 28)",406.2 ± 46.2 ms
same,ECG Heart Rate,[3]; [7],74.3 +/− 10.0 beats/minute
same,QTcB interval,[3]; [7],423.2 ± 4.03 ms
same,QTcF interval,[3]; [7],409.5 ± 34.3 ms
same,ECG Heart Rate,[3]; [8],64.7 +/− 10.0 beats/minute
same,QTcB interval,[3]; [8],427.7 ± 31.9 ms
same,QTcF interval,[3]; [8],422.8 ± 27.9 ms
same,Number of TEAEs by Relationship to Study Drug: Not Related,[4]; 40 mg BID,10
same,Number of TEAEs by Relationship to Study Drug: Possibly Related,[4]; 40 mg BID,22
same,Number of TEAEs by Relationship to Study Drug: Probably Related,[4]; 40 mg BID,0
same,Number of TEAEs by Severity: Mild,[4]; 40 mg BID,26
same,Number of TEAEs by Severity: Moderate,[4]; 40 mg BID,6
same,Number of TEAEs by Relationship to Study Drug: Not Related,[4]; 80 mg BID,9
same,Number of TEAEs by Relationship to Study Drug: Possibly Related,[4]; 80 mg BID,24
same,Number of TEAEs by Relationship to Study Drug: Probably Related,[4]; 80 mg BID,6
same,Number of TEAEs by Severity: Mild,[4]; 80 mg BID,31
same,Number of TEAEs by Severity: Moderate,[4]; 80 mg BID,8
same,Number (%) of Subjects with at least one AE,"[4]; Overall, 40 mg BID",12(63.2%)
same,Number (%) of Subjects with at least one TEAE,"[4]; Overall, 40 mg BID",12(63.2%)
same,Number of AEs,"[4]; Overall, 40 mg BID",32
same,Number of SAEs,"[4]; Overall, 40 mg BID",0
same,Number of TEAEs,"[4]; Overall, 40 mg BID",32
same,Number (%) of Subjects with at least one AE,"[4]; Overall, 80 mg BID",14(7738%)
same,Number (%) of Subjects with at least one TEAE,"[4]; Overall, 80 mg BID",14(7738%)
same,Number of AEs,"[4]; Overall, 80 mg BID",40
same,Number of SAEs,"[4]; Overall, 80 mg BID",0
same,Number of TEAEs,"[4]; Overall, 80 mg BID",39
same,Number (5) of Subjects with at least one TEAE,[4]; [9],3(15.8%)
same,Number of TEAEs,[4]; [9],3
same,Number (5) of Subjects with at least one TEAE,[4]; [10],7(38.9%)
same,Number of TEAEs,[4]; [10],11
same,Severe adverse effects,[4]; treated groups overall,no severe adverse effects were observed
